Data set [1] can be described thus: Cytotoxicity against human Hep2 cells. The class given is cell-based, HEp-2.
In data set [2] the test system is Respiratory syncytial virus. Briefly: Antiviral activity against Respiratory syncytial virus A2 infected in human Hep2 cells after 3 days by ELISA. Conditions: A2, HEp-2, 72 h. It is filed as functional, organism-based.
Data set [3] has as its system Respiratory syncytial virus. Briefly: Antiviral activity against Respiratory syncytial virus A2 infected in hamster BHK21 cells after 2 days by luciferase reporter gene assay. The class given is functional, organism-based. Conditions: human respiratory syncytial virus, A2, BHK-21, 48 h. A general note: In a reporter assay the amount or activity of a reporter protein is the signal.

The subject of data set [4] is Respiratory syncytial virus. As to the kind of experiment: Antiviral activity against Respiratory syncytial virus B-Washington infected in human Hep2 cells after 3 days by ELISA. The class given is functional, organism-based. As to conditions: HEp-2, 72 h. Background: In an ELISA, binding on a coated surface is turned into a signal by an enzyme label.
A short description of data set [5]: Aqueous solubility of the compound. It is filed as physicochemical. As to conditions: buffer.
Data set [6] in a line: Cytotoxicity against hamster BHK21 cells. The class given is cell-based, Mesocricetus auratus, BHK-21.
The nature of data set [7]: Absorption half life in rat lungs at 10 ug/kg administered intratracheally as solution. Conditions: lung, inhaled or intranasal, 0.01 mg/kg, read-out: t1/2abs. The class given is ADME, tissue-based.

Converted amounts (≈) assume the structure as drawn.

Consider `O=C(NC1CC1)c1cc2c(s1)-c1ccccc1N(C(=O)c1ccc(NC(=O)c3cccnc3N3CCN(CCO)CC3)cc1)CC2`, for which the CC50 in data set [1] is > 50 µM. For the same molecule, the values for the concentration giving a half-maximal response (EC50) in data set [2], in data set [3] and in data set [4] were 8 µM, 13 µM and > 50 µM, respectively. In addition, the concentration in solution in data set [5] (solubility) was 40 µM (≈ 25.5 µg/mL).
For `O=C(NC1CC1)c1cc2c(s1)-c1ccccc1N(C(=O)c1ccc(NC(=O)c3cccnc3N3CCCC3)nc1)CC2`, the concentration giving a half-maximal response (EC50) in data set [2], in data set [3] and in data set [4] was > 50 µM throughout. The CC50 in data set [6] is > 50 µM. In data set [5], this molecule gave a solubility of 3 µM (≈ 1.74 µg/mL).
As for `O=C(NC1CC1)c1cc2c(s1)-c1ccccc1N(C(=O)c1ccc(NC(=O)c3cccnc3N3CCCC3)cc1)CC2`, the cytotoxic concentration (CC50) in data set [1] and in data set [6] was > 50 µM throughout. The figures for the EC50 in data set [2], in data set [3] and in data set [4] were 0.15 µM, 0.31 µM and > 50 µM, respectively. Besides, the solubility in data set [5] is < 1 µM.
As for `O=C(NC1CC1)c1cc2c(s1)-c1ccccc1N(C(=O)c1ccc(NC(=O)c3cccnc3N3CCOCC3)cc1)CC2`, in data set [1], the CC50 was > 50 µM. The values for the EC50 in data set [2], in data set [3] and in data set [4] were 0.23 µM, 0.63 µM and 17 µM, respectively. In data set [5], this molecule returned a solubility of 36 µM (≈ 21.4 µg/mL).
The corresponding values for `CC(=O)N1CC2(CCN(c3ncccc3C(=O)Nc3ccc(C(=O)N4CCc5cc(C(=O)NC6CC6)sc5-c5ccccc54)cc3)CC2)C1` are 34 µM, 5.3 µM, 9 µM, 39 µM and 4 µM (≈ 2.7 µg/mL).
The corresponding values for `CN1CC2(CCN(c3ncccc3C(=O)Nc3ccc(C(=O)N4CCc5cc(C(=O)NC6CC6)sc5-c5ccccc54)cc3)CC2)C1` are 34 µM, 34 µM, 8.5 µM, 17 µM and 55 µM (≈ 35.6 µg/mL).
With `O=C(NC1CC1)c1cc2c(s1)-c1ccccc1N(C(=O)c1ccc(NC(=O)c3cccnc3N3CCC4(CC3)COC4)cc1)CC2`, in data set [1], the CC50 is > 50 µM. Besides, the results for the EC50 in data set [2], in data set [3] and in data set [4] were 0.01 µM, 0.01 µM and 1 µM, respectively. Further, in data set [7], the half-life is < 1 min. For the same molecule, the solubility in data set [5] was 2 µM (≈ 1.27 µg/mL).
As for `O=C(NC1CC1)c1cc2c(s1)-c1cccnc1N(C(=O)c1ccc(NC(=O)c3cccnc3N3CCCC3)cc1)CC2`, the results for the 50% effective concentration (EC50) in data set [2], in data set [3] and in data set [4] were 7.8 µM, 8.6 µM and > 50 µM, respectively. In addition, in data set [6], the CC50 was > 50 µM. The same molecule registered a solubility in data set [5] of 10 µM (≈ 5.79 µg/mL).
As to `O=C(NC1CC1)c1cc2c(s1)-c1ccccc1N(C(=O)[C@H]1C[C@@H](NC(=O)c3cccnc3N3CCCC3)C1)CC2`, the CC50 in data set [6] is > 50 µM. The EC50 in data set [3] is > 50 µM. This molecule also came in with a solubility in data set [5] of 2 µM (≈ 1.11 µg/mL).
As for `O=C(NC1CC1)c1cc2c(s1)-c1ccccc1N(C(=O)c1ccc(NC(=O)c3cccnc3N3CC4(CCOCC4)C3)cc1)CC2`, the CC50 in data set [1] is > 50 µM. Further, the 50% effective concentration (EC50) in data set [2] is 0.01 µM; in data set [3], < 0.007 µM; in data set [4] it was 0.5 µM. For the same molecule, the solubility in data set [5] is < 1 µM.
The like results for `CN(C)CC1(O)CN(c2ncccc2C(=O)Nc2ccc(C(=O)N3CCc4cc(C(=O)NC5CC5)sc4-c4ccccc43)cc2)C1` were, in that order, > 50 µM, > 50 µM, > 50 µM, > 50 µM and > 100 µM.
On to `O=C(NC1CC1)c1cc2c(s1)-c1ccccc1N(C(=O)c1ccc(NC(=O)c3cccnc3N3CCC4(CCOCC4)CC3)cc1)CC2`, for which, in data set [1], the CC50 was > 50 µM. The EC50 in data set [2] was 0.03 µM; in data set [3], 0.04 µM; in data set [4], 2.2 µM. For the same molecule, in data set [5], the solubility was < 1 µM.
On to `O=C(NC1CC1)c1cc2c(s1)-c1ccccc1N(C(=O)[C@H]1C[C@H](NC(=O)c3cccnc3N3CCCC3)C1)CC2`, for which the cytotoxic concentration (CC50) in data set [6] is > 50 µM. In addition, a half-maximal response in data set [3] (EC50) required 16 µM. In addition, in data set [5], the concentration in solution (solubility) came to 3 µM (≈ 1.67 µg/mL).
Consider `O=C(NC1CC1)c1cc2c(s1)-c1ccccc1N(C(=O)c1ccc(NC(=O)c3ccccc3N3CCC4(CC3)COC4)cc1)CC2`, for which the 50% cytotoxic concentration (CC50) in data set [1] was > 50 µM. The values for the EC50 in data set [2], in data set [3] and in data set [4] were < 0.21 µM, 0.19 µM and > 50 µM, respectively. For the same molecule, the solubility in data set [5] was < 1 µM.
Regarding `O=C(NC1CC1)c1cc2c(s1)-c1ccccc1N(C(=O)N1CCC(NC(=O)c3cccnc3N3CCCC3)CC1)CC2`, the CC50 in data set [6] is > 50 µM. Also, the 50% effective concentration (EC50) in data set [3] amounted to 14 µM. For the same molecule, the concentration in solution in data set [5] (solubility) came to 26 µM (≈ 15.2 µg/mL).
`O=C(NC1CC1)c1cc2c(s1)-c1ccccc1N(C(=O)c1ccc(NC(=O)c3ncccc3N3CCC4(CC3)COC4)cc1)CC2` returned a CC50 in data set [1] of 43 µM. The EC50 amounted to 0.47 µM in data set [2], 0.35 µM in data set [3] and 49 µM in data set [4]. Besides, the solubility in data set [5] was < 1 µM.
With `O=C(NC1CC1)c1cc2c(s1)-c1ccccc1N(C(=O)c1ccc(NC(=O)c3cccnc3N3CCCC3)cn1)CC2`, the 50% effective concentration (EC50) in data set [2] is 2.4 µM; in data set [3], 3.7 µM; in data set [4], > 50 µM. The 50% cytotoxic concentration (CC50) in data set [6] is > 50 µM. The solubility in data set [5] turned out to be 3 µM (≈ 1.74 µg/mL).
Turning to `O=C(NC1CC1)c1cc2c(s1)-c1ccccc1N(C(=O)[C@H]1CC[C@H](NC(=O)c3cccnc3N3CCCC3)CC1)CC2`, in data set [6], the CC50 is > 50 µM. Besides, in data set [3], the EC50 was > 50 µM. This molecule yielded a solubility in data set [5] of 11 µM (≈ 6.42 µg/mL).
On to `O=C(NC1CC1)c1cc2c(s1)-c1ccccc1N(C(=O)c1ccc(NC(=O)c3ccncc3N3CCC4(CC3)COC4)cc1)CC2`, for which the cytotoxic concentration (CC50) in data set [1] was 4.8 µM. Moreover, the EC50 in data set [2] was < 0.21 µM; in data set [3], 0.16 µM; in data set [4] it was 5.1 µM. Besides, the solubility in data set [5] is < 1 µM.
As for `O=C(NC1CC1)c1cc2c(s1)-c1ccccc1N(C(=O)c1ccc(NC(=O)c3cccnc3N3CC[S+]([O-])CC3)cc1)CC2`, the half-maximal cytotoxic concentration (CC50) in data set [1] is > 50 µM. For the same molecule, the EC50 is 9.6 µM in data set [2], 12 µM in data set [3] and > 50 µM in data set [4]. Besides, the solubility in data set [5] was determined as 26 µM (≈ 16.3 µg/mL).
As for `O=C(NC1CC1)c1cn2c(n1)-c1ccccc1N(C(=O)c1ccc(NC(=O)c3cccnc3N3CCCC3)cc1)CC2`, the figures for the EC50 in data set [2], in data set [3] and in data set [4] were 50 µM, 22 µM and 50 µM, respectively. In addition, in data set [6], the half-maximal cytotoxic concentration (CC50) is > 50 µM. Besides, in data set [5], the concentration in solution (solubility) was 121 µM (≈ 68 µg/mL).
In the case of `O=C(NC1CC1)c1cc2n(n1)CCN(C(=O)c1ccc(NC(=O)c3cccnc3N3CCCC3)cc1)c1ccccc1-2`, the EC50 came to 20 µM in data set [2], 9 µM in data set [3] and 50 µM in data set [4]. Also, in data set [6], the CC50 is > 50 µM. This molecule also gave a solubility in data set [5] of 32 µM (≈ 18 µg/mL).
As for `COc1ccc(C(=O)Nc2ccc(C(=O)N3CCc4cc(C(=O)NC5CC5)sc4-c4ccccc43)cc2)c(N2CCC3(CC2)COC3)n1`, the CC50 in data set [1] is > 50 µM. The figures for the EC50 in data set [2], in data set [3] and in data set [4] were < 0.21 µM, 0.02 µM and 1.8 µM, respectively. The solubility in data set [5] is < 1 µM.
For `O=C(NC1CC1)c1cc2c(s1)-c1cnccc1N(C(=O)c1ccc(NC(=O)c3cccnc3N3CCCC3)cc1)CC2`, the figures for the 50% effective concentration (EC50) in data set [2], in data set [3] and in data set [4] were 1.1 µM, 2.2 µM and > 50 µM, respectively. For the same molecule, in data set [6], the CC50 was > 50 µM. In addition, the solubility in data set [5] turned out to be 1 µM (≈ 0.579 µg/mL).
On to `O=C(NC1CC1)c1cc2c(s1)-c1ccccc1N(C(=O)c1ccc(NC(=O)c3cnccc3N3CCC4(CC3)COC4)cc1)CC2`, for which the CC50 in data set [1] was found to be 34 µM. The concentration for a half-maximal effect (EC50) was determined as 0.68 µM in data set [2], 0.57 µM in data set [3] and 14 µM in data set [4]. Also, the solubility in data set [5] was found to be 9 µM (≈ 5.7 µg/mL).
The corresponding values for `O=C(NC1CC1)c1cc2c(s1)-c1ccccc1N(C(=O)c1ccc(NC(=O)c3cccnc3N3CCS(=O)(=O)CC3)cc1)CC2` are > 50 µM, 2.2 µM, 3.6 µM, > 50 µM and 4 µM (≈ 2.57 µg/mL).

Broadly, the CC50 is the concentration giving 50% cytotoxicity. By EC50 is commonly meant the concentration at which the effect is half-maximal. High values mean weaker potency, low ones greater potency. In general, solubility refers to how much of the substance goes into solution per volume. Low values mean little dissolved substance, high ones much dissolved substance.

Values taken from ChEMBL document CHEMBL3091401, “Discovery of a potent respiratory syncytial virus RNA polymerase inhibitor” (Bioorg Med Chem Lett, 2013).
